From patent US20240350458A1, “14-3-3 PROTEIN MODULATORS AS ANTITUMOR AGENTS” (priority 2021, published 2024)

Key:
14-3-3 = experiment: DARTS in U87MG cells; assay type: binding; conditions: 5 μM, 2 h, MS and western blot
Procedure: FIG. 5 represents DARTS experiments results as reported in example 6: Proteins obtained from U87MG cells incubated with 5 μM of FC86 or with the medium for 2 h underwent subtilisin-catalyzed digestion.
Current protocols in chemical biology 2011, 3:163-180]. […] The same DARTS experiments were also performed by incubating glioblastoma cell lines (U87MG) with subtoxic amounts of FC86 and data collected confirmed the 14-3-3 as target protein. (FIG. 5).
The identification of putative targets of FC86 was achieved by Drug Affinity Responsive Target Stability (DARTS) experiments. Cancer cells were incubated with a sub-toxic concentration (50 nM for U937 and 5 μM for U87MG) of FC86 for 2 h or with the medium (control cells). After the treatments, treated and control cells were collected and whole protein extracts were prepared by lysing cells in 20 mM Tris-HCl (pH 7.5), 150 mM NaCl, 1 mM EDTA, 1 mM EGTA, 1% NP-40, 1% sodium deoxycholate, 2.5 mM sodium pyrophosphate, 1 mM β-glycerophosphate, 1 mM Na3VO4, 1 μg/ml leupeptin. Protein concentration was determined by the Bradford protein assay using bovine serum albumin as standard. […] Parameters sets were: trypsin cleavage; carbamidomethylation of cysteine as a fixed modification and methionine oxidation as a variable modification; a maximum of two missed cleavages; false discovery rate (FDR), calculated by searching the decoy database, 0.05. […]

[1] = tested on: ATC-derived cell lines (Sw, FRO, 8505c); experiment: MTT proliferation assay, three ATC-derived cell lines; assay type: cell-based; conditions: Homo sapiens; three ATC-derived cell lines (Sw, FRO, 8505c), 72 h; read-out: IC50 value after 72 h exposure
Procedure: (§1) The antiproliferative activity was assessed by MTT proliferation assay (Table III) The anticancer activity was also investigated in a rare and lethal cancer (i.e. anaplastic thyroid cancer) by the use of three ATC-derived cell lines (Sw, FRO, 8505c). Again, the IC50 value after 72 h exposure was in the range of 10 to 50 nM. The same trend was also observed in four melanoma cell lines A2058, M14 (genotype BRAFV600E), SKMEL 197 e MEWO (genotype BRAF wild-type).

NCI-H69 = experiment: MTT proliferation assay, SCLC; assay type: cell-based; conditions: Homo sapiens
Procedure: as §1
(§2) Table III IC50 expressed in μM and Emax (at 30 μM) for FC86 after 72 h exposure, were calculated by MTT assay

NCI-H82 = experiment: MTT proliferation assay, SCLC; assay type: cell-based; conditions: Homo sapiens
Procedure: as §1, §2

410 human kinases = experiment: ProQinase kinase profiling; assay type: biochemical; conditions: at 1 and 0.1 μM

`Cc1ccc(S(=O)(=O)Nc2ccc3c(c2)/C(=C/c2cccs2)C(=O)N3)cc1` [FC86, N-[(3Z)-2-oxo-3-(thiophene-2-ylmethylidene)-2,3-dihydro-1H-indol-5-yl]-4-methylbenzenesulfonamide] was tested, and the “resistance of 14-3-3 to subtilisin proteolysis (DARTS)” value (14-3-3) was “significant increment of resistance to proteolysis”, the IC50 [1] was 0.01 to 0.05 µM and the Emax at 30 µM (NCI-H69; SCLC NCI-H69, 30 μM, 72 h) was 80%. It also gave an IC50 (NCI-H69; SCLC NCI-H69, 72 h exposure) of 1.4 µM, an Emax at 30 µM (NCI-H82; SCLC NCI-H82, 30 μM, 72 h) of 55% and an IC50 (NCI-H82; SCLC NCI-H82, 72 h exposure) of 3 µM. For the same compound, the “activity against 410 human kinases” value (410 human kinases) was “lack of activity against any of them”.
